According to patent US9156827B2, “Anticancer agent” (THE UNIVERSITY OF TOKYO, priority 2010, dated 2015):
Structures can show the parent of a compound that is named as a salt.

How the values were obtained:
[1] = tested on: Human acute myeloid leukemia MV4-11 cells; assay: Cell proliferation-suppressing activity, chromogenic method (MTT assay); assay type: cell-based; conditions: 72 h, compound 1 μM, MTT assay three days after addition
Procedure: (§1) Measurement of Cell Proliferation-Suppressing Activity (Chromogenic Method)
Human acute myeloid leukemia MV4-11 cells (10^4 cells) were inoculated on a 96-well microtiter plate, each compound was added at a final concentration of 1 μM 24 hours afterward, and MTT assay was performed three days after the addition of the compound to measure the cell proliferation-suppressing activity.

pim-1 kinase = pim-1 kinase (Homo sapiens, UniProt P11309); assay: Measurement of pim-1 kinase inhibitory activity (fluorescent substrate peptide, capillary electrophoresis); assay type: biochemical; conditions: 0.1 μM of each compound, 30 μM ATP, 1.5 μM substrate peptide, room temperature 2 hours
Procedure: Measurement of Pim-1 Kinase Inhibitory Activity
The result of the reaction was determined by quantifying the substrate and the phosphorylated reaction product separated by capillary electrophoresis based on difference in charges of the substances (EZ Reader II, Caliper Life Sciences, was used).

[2] = tested on: Human acute myeloid leukemia MV4-11 cells; assay: Cell proliferation-suppressing activity, chromogenic method (Cell Counting Kit-8); assay type: cell-based; conditions: compound 1 μM, 48 hours, Cell Counting Kit-8, absorbance 450 nm
Procedure: as §1
Human acute myeloid leukemia MV4-11 cells (2×10^4 cells) are inoculated on a 96-well microtiter plate. Each compound is added at a final concentration of 1 μM on the next day, and the cells are cultured for additional 48 hours. Absorbance is measured at 450 nm by using Cell Counting Kit-8 (Nacalai Tesque) to calculate the cell proliferation-suppressing activity.

Sequence of pim-1 kinase (P11309 whole entry): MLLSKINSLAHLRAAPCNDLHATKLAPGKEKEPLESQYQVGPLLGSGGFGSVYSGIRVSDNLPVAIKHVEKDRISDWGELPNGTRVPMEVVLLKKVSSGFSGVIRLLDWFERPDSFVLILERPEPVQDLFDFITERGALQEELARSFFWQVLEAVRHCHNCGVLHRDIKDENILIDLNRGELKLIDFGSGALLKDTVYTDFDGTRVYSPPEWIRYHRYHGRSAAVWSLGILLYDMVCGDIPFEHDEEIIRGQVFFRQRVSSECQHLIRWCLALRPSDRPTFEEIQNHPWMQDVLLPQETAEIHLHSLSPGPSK

SMILES | inhibition at 1 µM ([1]; Table 4) | inhibition at 0.1 µM (pim-1 kinase; Table 2) | inhibition at 1 µM ([2]; Table 7) | other results
COc1ccc2c(c1CN1CCNCC1)O/C(=C\c1n[nH]c3ccc(Br)cc13)C2=O [Compound B19, (Z)-2-[(5-Bromo-1H-indazol-3-yl)methylene]-6-methoxy-7-(piperazin-1-ylmethyl)benzofuran-3(2H)-one] | 94% | 100% |  | 
O=C1/C(=C/c2c[nH]c3ccc(Br)cc23)Oc2c1ccc(O)c2CN1CCNCC1 [Compound A22, (Z)-2-[(5-Bromo-1H-indol-3-yl)methylene]-6-hydroxy-7-(piperazin-1-ylmethyl)benzofuran-3(2H)-one dihydrochloride] |  |  |  | inhibition at 1 µM ([1]; Table 3): 70%; inhibition at 0.1 µM (pim-1 kinase; Table 1): 94%
CCOc1ccc2c(c1CN1CCNCC1)O/C(=C\c1n[nH]c3ccccc13)C2=O [Compound B22, (Z)-2-[(1H-Indazol-3-yl)methylene]-6-ethoxy-7-(piperazin-1-ylmethyl)benzofuran-3(2H)-one] | 90% | 96% |  | 
C[C@H]1CNCCN1Cc1c(O)ccc2c1O/C(=C\c1n[nH]c3ccccc13)C2=O [Compound B3, (Z)-2-[(1H-Indazol-3-yl)methylene]-6-hydroxy-7-{[2-(S)-methylpiperazin-1-yl]methyl}benzofuran-3(2H)-one] | 79% | 79% |  | 
O=C1CN(Cc2c(O)ccc3c2O/C(=C\c2c[nH]c4ccccc24)C3=O)CCN1 [Compound A7, (Z)-4-({2-[(1H-Indol-3-yl)methylene]-6-hydroxy-3-oxo-2,3-dihydrobenzofuran-7-yl}methyl)piperazin-2-one] |  |  |  | inhibition at 1 µM ([1]; Table 3): 22%; inhibition at 0.1 µM (pim-1 kinase; Table 1): 81%
CC(C)COc1ccc2c(c1CN1CCNCC1)O/C(=C\c1n[nH]c3ccccc13)C2=O [Compound B26, (Z)-2-[(1H-Indazol-3-yl)methylene]-6-isobutoxy-7-(piperazin-1-ylmethyl)benzofuran-3(2H)-one] | 86% | 78% |  | 
COCCOc1ccc2c(c1CN1CCNCC1)O/C(=C\c1n[nH]c3ccccc13)C2=O [Compound B21, (Z)-2-[(1H-Indazol-3-yl)methylene]-6-(2-methoxyethoxy)-7-(piperazin-1-ylmethyl)benzofuran-3(2H)-one] | 94% | 97% |  | 
COc1ccc2c(c1OC1CCNCC1)O/C(=C\c1n[nH]c3ccccc13)C2=O [Compound B35, (Z)-2-[(1H-Indazol-3-yl)methylene]-6-methoxy-7-(piperidin-4-yloxy)benzofuran-3(2H)-one] | 95% | 97% |  | 
O=C1/C(=C/c2n[nH]c3ccccc23)Oc2c1cc1c(c2CN2CCNCC2)OCO1 [Compound B39] | 92% | 95% |  | 
COc1cc2c(c(CN3CCNCC3)c1OC)O/C(=C\c1n[nH]c3ccccc13)C2=O [Compound B38, (Z)-2-[(1H-Indazol-3-yl)methylene]-5,6-dimethoxy-7-(piperazin-1-ylmethyl)benzofuran-3(2H)-one] | 95% | 87% |  | 
CCCOc1ccc2c(c1CN1CCNCC1)O/C(=C\c1n[nH]c3ccccc13)C2=O [Compound B23, (Z)-2-[(1H-Indazol-3-yl)methylene]-7-(piperazin-1-ylmethyl)-6-propoxybenzofuran-3(2H)-one] | 90% | 93% |  | 
O=C1/C(=C/c2c[nH]c3ccccc23)Oc2c1ccc(O)c2CN1CCNCC1 [Compound A11, (Z)-2-[(1H-Indol-3-yl)methylene]-6-hydroxy-7-(piperazin-1-ylmethyl)benzofuran-3(2H)-one] |  |  |  | inhibition at 1 µM ([1]; Table 3): 82%; inhibition at 0.1 µM (pim-1 kinase; Table 1): 87%
O=C1/C(=C/c2c[nH]c3ccc([N+](=O)[O-])cc23)Oc2c1ccc(O)c2CN1CCNCC1 [Compound A17, (Z)-6-Hydroxy-2-[(5-nitro-1H-indol-3-yl)methylene]-7-(piperazin-1-ylmethyl)benzofuran-3(2H)-one dihydrochloride] |  |  |  | inhibition at 1 µM ([1]; Table 3): 73%; inhibition at 0.1 µM (pim-1 kinase; Table 1): 82%
O=C1/C(=C/c2n[nH]c3ccccc23)Oc2c1ccc(OCC1CC1)c2CN1CCNCC1 [Compound B27, (Z)-2-[(1H-Indazol-3-yl)methylene]-6-(cyclopropylmethoxy)-7-(piperazin-1-ylmethyl)benzofuran-3(2H)-one] | 89% | 91% |  | 
O=C1/C(=C/c2c[nH]c3ccccc23)Oc2c1ccc(OCc1ccccc1)c2CN1CCNCC1 [Compound A61, (Z)-2-[(1H-Indol-3-yl)methylene]-6-(benzyloxy)-7-(piperazin-1-ylmethyl)benzofuran-3(2H)-one] |  |  |  | inhibition at 1 µM ([2]; Table 6): 58%; inhibition at 0.1 µM (pim-1 kinase; Table 1): 66%
COc1ccc2c(c1C#CC(C)(C)N1CCNCC1)O/C(=C\c1n[nH]c3ccccc13)C2=O [Compound B67, (Z)-2-[(1H-Indazol-3-yl)methylene]-6-methoxy-7-[3-methyl-3-(piperazin-1-yl)but-1-ynyl]benzofuran-3(2H)-one] |  | 46% | 96% | 
COc1ccc2c(c1C1CCNCC1)O/C(=C\c1n[nH]c3ccccc13)C2=O [Compound B53, (Z)-2-[(1H-Indazol-3-yl)methylene]-6-methoxy-7-(piperidin-4-yl)benzofuran-3(2H)-one] |  | 36% | 98% | 
COc1c(F)cc2c(c1CCC1CCNCC1)O/C(=C\c1n[nH]c3ccccc13)C2=O [Compound B66, (Z)-2-[(1H-Indazol-3-yl)methylene]-5-fluoro-6-methoxy-7-[2-(piperidin-4-yl)ethyl]benzofuran-3(2H)-one] |  | 89% | 88% | 
O=C1/C(=C/c2n[nH]c3ccccc23)Oc2c(CN3CCNCC3)cccc21 [Compound B45, (Z)-2-[(1H-Indazol-3-yl)methylene]-7-(piperazin-1-ylmethyl)benzofuran-3(2H)-one] |  | 79% | 28% | 
COc1ccc2c(c1/C=C\CC1CCNCC1)O/C(=C\c1n[nH]c3ccccc13)C2=O [Compound B59, (Z)-2-[(1H-Indazol-3-yl)methylene]-6-methoxy-7-[(Z)-3-(piperidin-4-yl)prop-1-enyl]benzofuran-3(2H)-one] |  | 96% | 55% | 
COc1ccc2c(c1CC1CCNCC1)O/C(=C\c1n[nH]c3ccccc13)C2=O [Compound B54, (Z)-2-[(1H-Indazol-3-yl)methylene]-6-methoxy-7-(piperidin-4-ylmethyl)benzofuran-3(2H)-one] |  | 98% | 97% | 
O=C1/C(=C/c2c[nH]c3ccccc23)Oc2c(CN3CCNCC3)cccc21 [Compound A56, (Z)-2-[(1H-indol-3-yl)methylene]-7-(piperazin-1-ylmethyl)benzofuran-3(2H)-one] |  |  |  | inhibition at 1 µM ([2]; Table 6): 43%; inhibition at 0.1 µM (pim-1 kinase; Table 1): 80%
COc1ccc2c(c1CCCCN1CCNCC1)O/C(=C\c1n[nH]c3ccccc13)C2=O [Compound B51, (Z)-2-[(1H-Indazol-3-yl)methylene]-6-methoxy-7-[4-(piperazin-1-yl)butyl]benzofuran-3(2H)-one] |  | 86% | 94% | 
COc1ccc2c(c1C#CCCC1CCNCC1)O/C(=C\c1n[nH]c3ccccc13)C2=O [Compound B61, (Z)-2-[(1H-Indazol-3-yl)methylene]-6-methoxy-7-[4-(piperidin-4-yl)but-1-ynyl]benzofuran-3(2H)-one] |  | 70% | 97% | 
COc1ccc2c(c1C#CCCN1CCNCC1)O/C(=C\c1n[nH]c3ccccc13)C2=O [Compound B49, (Z)-2-[(1H-Indazol-3-yl)methylene]-6-methoxy-7-[4-(piperazin-1-yl)but-1-ynyl]benzofuran-3(2H)-one] |  | 63% | 93% | 
O=C1/C(=C/c2n[nH]c3ncccc23)Oc2c1ccc(O)c2CN1CCNCC1 [Compound B68, (Z)-2-[(1H-Pyrazolo[3,4-b]pyridin-3-yl)methylene]-6-hydroxy-7-(piperazin-1-ylmethyl)benzofuran-3(2H)-one] |  | 93% | 52% | 
COc1ccc2c(c1CN1CCNCC1)O/C(=C\c1cn(S(=O)(=O)c3ccc(C)cc3)c3ccccc13)C2=O [Compound A57, (Z)-6-Methoxy-7-(piperazin-1-ylmethyl)-2-[(1-tosyl-1H-indol-3-yl)methylene]benzofuran-3(2H)-one] |  |  |  | inhibition at 1 µM ([2]; Table 6): 37%; inhibition at 0.1 µM (pim-1 kinase; Table 1): 28%
COc1ccc2c(c1CN1CCNCC1)O/C(=C\c1n[nH]c3ncccc13)C2=O [Compound B69, (Z)-2-[(1H-Pyrazolo[3,4-b]pyridin-3-yl)methylene]-6-methoxy-7-(piperazin-1-ylmethyl)benzofuran-3(2H)-one] |  | 95% | 100% | 
COc1ccc2c(c1CC1CCNCC1)O/C(=C\c1n[nH]c3ncccc13)C2=O [Compound B71, (Z)-2-[(1H-Pyrazolo[3,4-b]pyridin-3-yl)methylene]-6-methoxy-7-(piperidin-4-ylmethyl)benzofuran-3(2H)-one] |  | 95% | 100% | 
